Converted amounts (≈) assume the structure as drawn. Like-named read-outs stand apart in the source and are kept apart here.
Test system: RFR (resistant strains selected from RF against Example 1)
Test: CEM-T4 cell infection assay, reverse transcriptase readout, resistant isolate RFR
Assay type: cell-based, HIV-1
Details: Human immunodeficiency virus 1, CEM-T4, 168 h, 7 days, read-out: Virus Isolate (EC50 ng/mL) RFR
Text: RF represents the HIV-1 strain HIV-LRF and RFR represents a mixture of resistant strains obtained by selection of RF against the compound of Example 1. RFR comprises a mixture of viral strains having protease genotypes of G48V (14/40 clones); G48V, V82A (18/40 clones); G48V, L90S (2/40 clones); G48V, 154T, V82A (1/40 clones); G48M (1/40 clones); G48V, Q61H (1/40 clones); V13I, G48V (1/40 clones); G48V, F53L, V82A (1/40 clones); and G48V, V82A, C95Y (1/40 clones). RFR2 represents a mixture of resistant strains obtained by cloning RFR by three rounds of growth at limiting dilution. RFR2 comprises a mixture of viral strains having protease genotypes of G48V, V82A (13/15 clones); G17E, G48V, V82A (1/15 clones); and G48V, V82A, N37D, N88D (1/15 clones). RFRR represents a mixture of resistant strains obtained by selection of RF against the compounds of Examples 1 and 2 and then cloning by three rounds of growth at limiting dilution. RFRR comprises a mixture of viral strains having protease genotypes of G48V, 154T, L63P, V82A (7/9 clones); G48V, 154T, L63P, V82A, N88S (1/9 clones); and G48V, 154T, L63P, G73M, V82A (1/9 clones). SF162 represents the HIV-1 strain SF-162 and SF162R represents a mixture of resistant strains obtained by selection of SF162 against the compound of Example 1. SF162R comprises a mixture of viral strains having protease genotypes of M461, F53L, L63P, A71V, N88D (2/3 clones); and M46I, F53L, L63P, A71V, N88D, Q92R (1/3 clones). 89-959 represents the HIV-1 strain 89-959 and 89-959R represents a mixture of resistant strains obtained by selection of 89-959 against the compound of Example 2. 89-959R comprises a mixture of viral strains having protease genotypes of N88S (4/5 clones); and D25N, T26A, D30N, D37N, R41K, G73D, R87K, N88S (1/4 clones). NL4 represents the HIV-1 strain HIV-1NL4-3. NL4(G48V) represents a strain having a synthetically generated site-directed mutation in the protease from glycine to valine at amino acid position number 48. NL4(I84V) represents a strain having a synthetically generated site-directed mutation in the protease from isoleucine to valine at amino acid position number 84. NL4(R8Q,M46I) represents a strain having synthetically generated site-directed mutations in the protease from arginine to glutamine at amino acid position number 8 and methionine to isoleucine at amino acid position number 46. NL4(P22-538) represents a mixture of resistant strains obtained by selection of HIV-1NL4-3 against the compound of Example 10 after 22 passages comprising protease genotypes M46I, L63P, A71V, V82F, I84V (4/10); M46I, L63P, V82F, I84V (3/10); and M46I, A71V, V82F, I84V (3/10). NL4(P37-538) represents resistant strains obtained by selection of HIV-1NL4-3 against the compound of Example 10 after 37 passages comprising protease genotype M46I, L63P, A71V, 184A. NL4(538/524) represents resistant strains obtained by selection of NL4(P22-538) against the compound of Example 5 after 24 passages comprising protease genotype M46I, L63P, A71V, 184A. NL4(538/P7-AG) represents a mixture of resistant strains obtained by selection of NL4(P22-538) against the compound of Example 12 after 7 passages comprising protease genotypes M46I, L63P, A71V, 184A; and V321, V82I. NL4(538/P24-AG) represents resistant strains obtained by selection of NL4(P22-538) against the compound of Example 12 after 24 passages comprising protease genotype M46I, L63P, A71V, 184A. NLA(P19-003) represents resistant strains obtained by selection of HIV-1^NL4-3 against the compound of Example 9 after 19 passages comprising protease genotype R8K, M46I. NL4(P34-003) represents resistant strains obtained by selection of HIV-1^NL4-3 against the compound of Example 9 after 34 passages comprising protease genotype R8K, M46I, L63P, A71V, L90M.
The viral isolate resistance results summarized in Tables 4-6 were generated according to the following assay procedure or minor modifications thereof. Assays are performed in 96-well tissue culture plates. […]

Structure (SMILES)	EC50 (Table 4, CEM-T4 cells) [ng/mL]	EC50 (Table 5, CEM-T4 cells) [ng/mL]
CC(C)CN(C[C@@H](O)[C@H](Cc1ccccc1)NC(=O)[C@H](CC(N)=O)NC(=O)c1ccc2ccccc2n1)C(=O)NC(C)(C)C (relative stereo) [Example 1, [1S-[1R*(R*),2S*]]-N^1-[3-[[[(1,1-dimethylethyl)amino]carbonyl])2-methylpropyl)amino]-2-hydroxy-1-(phenylmethyl)propyl]-2-[(2-quinolinylcarbonyl)amino]-butanediamide]	223 (≈ 0.369 µM)	394 (≈ 0.652 µM)
CC(C)CCN(C[C@@H](O)[C@H](Cc1ccccc1)NC(=O)[C@H](CC(N)=O)NC(=O)c1ccc2ccccc2n1)C(=O)NC(C)(C)C (relative stereo) [Example 7, [1S-[1R*(R*),2S*]]-N^1-[3-[[[(1,1-dimethylethyl)amino]carbonyl](3-methylbutyl)amino]-2-hydroxy-1-(phenylmethyl)propyl]-2-[(2-quinolinylcarbonyl)amino]-butanediamide]	–	78 (≈ 0.126 µM)
CC(C)(C)NC(=O)[C@@H]1CC2CCCC[C@@H]2CN1C[C@@H](O)[C@H](Cc1ccccc1)NC(=O)[C@H](CC(N)=O)NC(=O)c1ccc2ccccc2n1 (stereo in doubt) [Example 6, N-tert-Butyl decahydro-2-[2(R)-hydroxy-4-phenyl-3(S)-[[N-(2-quinolylcarbonyl)-L-asparaginyl]amino]butyl]-(4aR,8aS)-isoquinoline-3(S)-carboxamide]	15 (≈ 0.0224 µM)	–
CNCC(=O)N[C@H](C(=O)N[C@@H](Cc1ccccc1)[C@H](O)CN(CCC(C)C)C(=O)NC(C)(C)C)C(C)(C)C [Example 2, (2R,3S)-3-(N-methylaminoacetyl-L-tert-butylglycinyl)amino-1-(N-isoamyl-N-(tert-butylcarbamoyl))amino-4-phenyl-2-butanol]	8 (≈ 0.015 µM)	–
CC(C)(C)NC(=O)[C@@H]1CN(Cc2cccnc2)CCN1C[C@@H](O)C[C@@H](Cc1ccccc1)C(=O)N[C@H]1c2ccccc2C[C@H]1O [Example 5, N-(2(R)-Hydroxy-1(S)-indanyl)-2(R)-phenylmethyl-4(S)-hydroxy-5-(1-(4-(3-pyridylmethyl)-2(S)-N′-(t-butylcarboxamido)-piperazinyl))-pentaneamide]	7 (≈ 0.0114 µM)	–
CC(C)CN(C[C@@H](O)[C@H](Cc1ccccc1)NC(=O)[C@H](CC(N)=O)NC(=O)c1ccc2ccccc2n1)S(=O)(=O)NC(C)(C)C [Example 8, N-[3-[N^2-[N^1-(1,1-dimethylethyl)aminosulfonyl]-N^2-(2-methylpropyl)amino]-2R-hydroxy-1S-(phenylmethyl)propyl]-2S-[(2-quinolinylcarbonyl)amino]butanediamide]	–	1 (≈ 0.00156 µM)

Source: US20030207813A1, “Retroviral protease inhibitor combinations” (priority 1995, published 2003)
